From PMC10107996, “Release of hepatitis B virions is positively regulated by glucose‐regulated protein 78 through direct interaction with preS1” (Journal of Medical Virology, 2022)
“Also recorded” adds a separate entry of the source. No end group written: not given here.

B1: pep56 (19-DPAFGANSL-29) (peptide)
peptide: DPAFGANSL
notes: also called pepp56; source: designed hydrophobic peptide of preS1
B2: GST-preS1-p3 (residues 66-119) (domain or fragment)
chain: GFTPPHGGLLGWSPQAQGILTTLPAAPPPASTNRQSGRQPTPISPPLRDSHPQA
modifications: also: GST fusion
B3: GST-preS1-p2 (residues 25-90) (domain or fragment)
chain: FPDHQLDPAFGANSNNPDWDFNPNKDHWPEANQVGAGAFGPGFTPPHGGLLGWSPQAQGILTTLPA
modifications: also: GST fusion
B4: pep59 (70-QGIMQTVPAN-80) (peptide)
peptide: QGIMQTVPAN
notes: source: designed hydrophobic peptide of preS1

Legend:
[1] = biological target: T1, recombinant GRP78 (Homo sapiens, UniProt P11021); assay: Isothermal titration calorimetry (ITC) with recombinant GRP78; type: binding
T1 construct: His; made in house; host or cells: Escherichia coli BL21
Procedure: Additionally, we collected purified recombinant GRP78 protein (Supporting Information: Figure S2) and HBV‐enveloped particles from the cell supernatant, followed by separation by ultracentrifugation at 4°C for isothermal titration calorimetry (ITC) experiments. […] These findings confirmed the ability of HBV to promote GRP78 expression and identified that GRP78 directly interacts with preS1 and HBV‐enveloped particles.
Affinity constants under equilibrium (Ka) were obtained using a Nano ITC instrument. GRP78 protein solution (300 µL) was titrated with repeated injections of 40 µL solution until saturation at 25 °C. Nano Analyze software was used for the integration of heat signals and nonlinear regression analysis of the data.

[2] = tested on: HBV‐enveloped particle release from HepG2.2.15 cells; assay: HBV-enveloped particle release and viral DNA content, particle gel assay and qPCR, HepG2.2.15 cells; type: cell-based, hepatitis B virus; conditions: for inhibition of GRP78-enhanced enveloped‐particle release and viral DNA content: GRP78‐overexpressing HepG2.2.15 cells
Procedure: (§1) HBV virions were identified by particle gel assay.[25] HBV‐producing cells were cultured, followed by harvesting of the culture medium. Cell supernatant was added to 35% PEG8000 and shaken at 4°C for >2 h. The viral particles were dissolved in TNE buffer, incubated overnight at 4°C, and subjected to agarose gel electrophoresis. The samples were transferred to a nitrocellulose membranes, treated with methanol for 30 min, blocked with 5% nonfat milk, and incubated with anti‐preS1 (for enveloped particles) or anti‐HBc (for capsid particles) antibodies for 1 h at 20°C. Following incubation with an antimouse secondary antibody (1:10,000) at 4°C overnight, the membrane was visualized using the an enhanced chemiluminescence western blot detection kit (Beyotime Biotech).

[3] = tested on: HBV‐enveloped particle release from HepAD38 cells; assay: HBV-enveloped particle release, particle gel assay, HepAD38 cells; type: cell-based, hepatitis B virus
Procedure: as §1

[4] = biological target: T2, purified recombinant GRP78 protein (human, UniProt P11021 19-654); assay: ITC; recombinant GRP78 with preS1 peptides; conditions: both partners purified
T2 construct: source: recombinant, purified

[5] = biological target: T2, purified recombinant GRP78 protein; assay: MST; purified truncated GST-preS1 proteins with GRP78; conditions: both partners purified
[6] = synthesized peptide and recombinant GRP78, 25 °C

T1 sequence (P11021 19-654): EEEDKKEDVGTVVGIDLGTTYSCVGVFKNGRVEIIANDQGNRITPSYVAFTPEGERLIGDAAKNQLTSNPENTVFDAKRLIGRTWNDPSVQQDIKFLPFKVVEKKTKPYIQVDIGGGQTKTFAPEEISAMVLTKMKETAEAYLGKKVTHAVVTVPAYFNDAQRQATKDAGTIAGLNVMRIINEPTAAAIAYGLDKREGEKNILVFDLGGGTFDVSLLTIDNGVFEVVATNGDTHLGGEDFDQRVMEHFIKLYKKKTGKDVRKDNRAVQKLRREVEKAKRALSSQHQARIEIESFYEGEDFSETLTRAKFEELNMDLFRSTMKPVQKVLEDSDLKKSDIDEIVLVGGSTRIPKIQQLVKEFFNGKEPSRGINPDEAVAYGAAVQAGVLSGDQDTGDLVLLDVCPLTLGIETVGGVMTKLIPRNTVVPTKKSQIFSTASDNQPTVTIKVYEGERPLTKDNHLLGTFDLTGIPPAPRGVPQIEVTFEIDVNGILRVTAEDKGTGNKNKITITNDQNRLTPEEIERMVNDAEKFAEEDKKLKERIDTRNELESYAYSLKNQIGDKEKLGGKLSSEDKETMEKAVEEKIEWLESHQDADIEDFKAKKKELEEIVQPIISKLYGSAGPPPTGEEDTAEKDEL
T2 sequence (P11021 19-654): as above

| Molecule | N (sites) [1, 6] | △H [1, 6] | further results |
| --- | --- | --- | --- |
| FHSHHNRPMKSP [GBP63, phage-display 12-mer peptide […]] | 0.248±3.22 sites | 8.83 ± 119 kcal/mol | – |
| GSWNTFRAQPTI [GBP64, phage-display 12-mer peptide […]] | 2.88±0.501 sites | 0.486 ± 0.186 kcal/mol | – |
| LTPHKHHKHLHA [GBP65] | 10.0±1.05 sites | 2.58 ± 0.647 kcal/mol | – |
| MKAHHSQLYPRH [GBP66, phage-display 12-mer peptide […]] | 10.0±2.38 sites | 1.55 ± 0.647 kcal/mol | – |
| QPTPISPPLRN [pep60, hydrophobic preS1 peptide 91‐[…]‐102] | – | – | interaction with GRP78 in words ([1]; 25 °C): weak interaction; inhibition of GRP78-enhanced enveloped‐particle release and viral DNA content ([2]; n = 3): minimal effects |
| SNIGALQFLPPP [GBP67, phage-display 12-mer peptide […]] | negative | negative | KD [1, 6]: negative |
| VTTVGMPNKSFF [GBP68] | 5.79±0.738 sites | 3.49 ± 0.881 kcal/mol | inhibition of enveloped‐particle release [3]: dose‐dependent manner; effect on abundance of cytoplasmic viral particles and core particle release ([2]; HepG2.2.15 and HepAD38 cells, particle gel assay with anti‐HBcAg and anti‐preS1 antibodies): negligible effects; inhibitory effect on HBV‐enveloped particle release and viral DNA content in supernatant ([2]; HepG2.2.15 cells, particle gel assay with anti‐preS1 antibody and qPCR, n = 3): significantly stronger inhibitory effect; also recorded: dose‐dependent manner |
| WDLAWMFRLPVG [pep415, reference compound] | – | – | inhibition of GRP78-enhanced enveloped‐particle release and viral DNA content ([2]; n = 3): inhibited |
| B1 | – | – | Kd [4]: 6.59 nM |
| B2 | – | – | Kd [5]: 431 nM |
| B3 | – | – | Kd [5]: 1200 nM |
| B4 | – | – | Kd [4]: 10.6 nM |
